pKd: −log10 of the molar value.
Molecular target: T1, TLR8 (Homo sapiens, UniProt Q9NR97)
T1 sequence (Q9NR97 27-827): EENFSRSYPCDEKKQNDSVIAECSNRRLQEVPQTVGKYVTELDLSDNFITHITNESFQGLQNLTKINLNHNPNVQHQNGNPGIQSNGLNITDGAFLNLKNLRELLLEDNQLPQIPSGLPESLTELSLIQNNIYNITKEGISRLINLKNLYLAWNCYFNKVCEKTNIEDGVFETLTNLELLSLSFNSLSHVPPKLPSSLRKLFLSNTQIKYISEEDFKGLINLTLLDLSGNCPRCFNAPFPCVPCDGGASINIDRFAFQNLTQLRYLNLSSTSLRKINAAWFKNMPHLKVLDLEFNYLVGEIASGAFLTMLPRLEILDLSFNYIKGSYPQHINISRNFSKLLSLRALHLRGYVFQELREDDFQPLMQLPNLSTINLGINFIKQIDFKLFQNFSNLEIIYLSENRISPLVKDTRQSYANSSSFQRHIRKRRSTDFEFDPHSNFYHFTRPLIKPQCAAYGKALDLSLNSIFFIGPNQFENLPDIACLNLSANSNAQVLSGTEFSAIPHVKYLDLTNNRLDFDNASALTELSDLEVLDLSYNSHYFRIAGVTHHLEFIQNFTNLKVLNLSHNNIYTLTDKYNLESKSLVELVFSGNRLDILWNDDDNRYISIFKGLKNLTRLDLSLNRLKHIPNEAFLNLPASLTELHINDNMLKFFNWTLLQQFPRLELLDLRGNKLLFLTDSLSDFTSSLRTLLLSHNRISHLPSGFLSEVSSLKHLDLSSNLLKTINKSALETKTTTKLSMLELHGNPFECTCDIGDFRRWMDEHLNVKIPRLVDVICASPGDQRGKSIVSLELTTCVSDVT
Assay: ITC
Assay type: binding

O=c1ccn([C@@H]2O[C@H](CO)[C@@H](O)[C@H]2O)c(=O)[nH]1 [uridine]
pKd: 4.92

Source: article PMC8285539, “Tetrasubstituted imidazoles as incognito Toll-like receptor 8 a(nta)gonists” (Nature Communications, 2021)
